Assay results as given in publication PMC12501029, “Discovery of a CNS active GSK3 degrader using orthogonally reactive linker screening” (Nature Communications, 2025).

Columns and labels:
GSK3β-HiBiT = biological target: T1, GSK3β-HiBiT (Homo sapiens, UniProt P49841); assay: Kinetic live cell degradation assay (LgBit transfected GSK3β-HiBiT KI HEK293 cells); assay type: cell-based
T1 construct: we generated endogenously tagged GSK3β-HiBiT knock-in (KI) HEK293 cells; endogenous in cells; host or cells: GSK3β-HiBiT KI HEK293 cells, transiently transfected with LgBit (Promega)
Experimental: For kinetic degradation assays, GSK3β-HiBiT KI HEK293 cells were reverse transfected into white bottom opaque 96-well assay plates. Briefly, GSK3β-HiBiT KI HEK293 cell suspension at a density of 2 × 10^6 per mL was prepared in standard culturing media. 10 mL of cell suspension mixed with transfection mix (1 mL of OptiMEM (Gibco) containing 3:1 ratio of FuGENE HD (Promega) and LgBit (Promega)). Then, cells were seeded into 96-well assay plate as a 100 µL cell suspension per well. After 24 h of transfection, the cell media was removed and 90 µL of CO2-independent medium supplemented with 10% FBS (Gibco) and 1:100 dilution of Endurazine (Promega) and incubated for 2.5 h at 37 °C. Test compounds were added onto cells and luminescence signals were monitored and recorded on GloMAX discover plate reader (Promega) in kinetic mode every 5 min. Data were normalised to DMSO conditions and plotted over time and degradation rates were calculated via Michaelis–Menten non-linear fitting analysis using GraphPad Prism (v10.1.2).

GSK3 = assay: Mode of action rescue studies in HEK293 cells (pre-treatment with MG132, MLN4924 or GSK3 inhibitor 29); assay type: cell-based, human; details: 2 h pre-treatment, 1 µM each inhibitor
Experimental: HEK293, HAP1, HAP1 CRBN KO and SH-SY5Y cells were plated in either 6 cm plates or 6-well plates at varying densities (0.5–0.7 × 10^6 cells per plate or wells), and MEF cells were plated in 10 cm plates (1–1.2 × 10^6 cells per plate) depending on experimental set up in respective culturing condition as described above. Stock solutions of compounds were prepared as 10 mM in DMSO (Sigma–Aldrich). Working dilutions were made up fresh in DMSO and culturing media or differentiation media was refreshed prior to any compound treatments. For mode of action studies, cells were pre-treated with inhibitors for 2 h: 1 µM MG132 (Merck, 474790-5 mg), 1 µM MLN4924 (Merck, 5054770001) or 1 µM GSK3 inhibitor (compound 29), before treating with PROTACs for 2, 4 or 24 h as indicated in figure legends. Cells were washed twice with ice-cold PBS (Gibco), harvested in PBS and pelleted, cells were resuspended in RIPA buffer supplemented with complete EDTA-free protease inhibitor cocktail (Roche,11873580001, 1/10 mL) and phosSTOP (Roche, 04906845001, 1 tablet/10 mL) for 20 min lysis on ice then cleared via centrifugation at 16,000 × g, 4 °C for 20 min. […] Following clearance of lysates, protein concentrations were determined by the BCA assay (Fisher Scientific, 23225) or Bradford assay (Bio-rad). […]

T1 sequence (P49841 whole entry): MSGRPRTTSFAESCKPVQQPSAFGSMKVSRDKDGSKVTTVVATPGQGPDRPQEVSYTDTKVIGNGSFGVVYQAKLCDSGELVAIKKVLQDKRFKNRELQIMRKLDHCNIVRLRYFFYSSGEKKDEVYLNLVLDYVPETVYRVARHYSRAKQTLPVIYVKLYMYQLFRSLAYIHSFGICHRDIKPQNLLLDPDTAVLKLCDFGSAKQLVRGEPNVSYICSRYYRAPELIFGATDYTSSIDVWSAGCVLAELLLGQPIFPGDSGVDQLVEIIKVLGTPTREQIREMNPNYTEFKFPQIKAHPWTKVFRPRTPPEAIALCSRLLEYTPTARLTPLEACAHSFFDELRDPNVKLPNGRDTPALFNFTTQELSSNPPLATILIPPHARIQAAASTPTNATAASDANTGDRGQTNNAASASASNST
T1 sequence (Q96SW2 whole entry partner): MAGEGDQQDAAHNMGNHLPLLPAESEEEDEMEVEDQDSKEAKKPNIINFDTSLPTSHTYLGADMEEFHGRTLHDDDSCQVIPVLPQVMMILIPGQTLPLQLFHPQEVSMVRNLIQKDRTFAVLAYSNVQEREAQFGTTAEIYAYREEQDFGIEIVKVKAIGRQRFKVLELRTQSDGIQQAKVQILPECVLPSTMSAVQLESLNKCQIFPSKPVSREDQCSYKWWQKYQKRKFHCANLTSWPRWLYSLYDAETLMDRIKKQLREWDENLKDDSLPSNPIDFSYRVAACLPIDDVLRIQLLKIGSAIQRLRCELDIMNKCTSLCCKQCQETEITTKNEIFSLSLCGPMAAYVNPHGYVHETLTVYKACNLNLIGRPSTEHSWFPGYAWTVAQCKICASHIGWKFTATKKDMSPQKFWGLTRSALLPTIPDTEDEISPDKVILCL

Structure (SMILES)	maximal degradation rate (λmax) (GSK3β-HiBiT; live cell, Michaelis-Menten fit)	GSK3 degradation in presence of MG132, MLN4924 or GSK3 inhibitor 29 (GSK3)	degradation of GSK3β in live cells (GSK3β-HiBiT; 10 nM, after 2 h)
Cn1nc(N2CCC(=O)NC2=O)c2ccc(CN3CCN(Cc4ccc(-c5cn(-c6ccc(-c7cn8nccc(C(=O)Nc9cnccc9N9CCOCC9)c8n7)cc6)nn5)nc4)CC3)cc21 [compound 24]	~ 1.0 h^−1	rescued	–
Cn1nc(N2CCC(=O)NC2=O)c2ccc(CN3CCN(CCCc4cn(-c5ccc(-c6cn7nccc(C(=O)Nc8cnccc8N8CCOCC8)c7n6)cc5)nn4)CC3)cc21 [compound 26]	–	rescued	almost complete degradation
